Experimental data taken from publication PMC4773758, “Small Molecule Inhibited Parathyroid Hormone Mediated cAMP Response by N–Terminal Peptide Binding” (Scientific Reports, 2016).

Experiments:
[1] = system: PTH(1–84) induced cAMP in HEK 293 cells expressing hPTH1R; test: cAMP accumulation assay, compound pre-incubated with PTH(1–84); assay type: cell-based, Human
Description: NMR spectroscopy identified that the Zn complex interacts with the N–terminal part of the peptide hormone. The binding region from residues 1–37 of PTH(84) is important for recognition, interaction with the extracellular loops and trans–membrane helices of the receptor and bringing about activation of the later. There are two principal signal transduction pathways involving the G protein–coupled receptors: the cAMP signal pathway and the phosphatidylinositol signal pathway. Parathyroid hormone is involved in the cAMP pathway for its biological regulation. Because binding of the Zn complex was at the N–terminal part of PTH, it is interesting to investigate the cAMP response towards its receptor in the presence of the Zn complex. Therefore PTH(1–34) and PTH(1–84) induced cAMP accumulation was measured in stable HEK 293 cell lines expressing recombinant PTH1R[33]. A cAMP generation assay was carried out in a Zn complex concentration dependent manner, keeping the cells and peptide hormone concentrations constant. PTH response without Zn complex was considered as 100% cAMP response. The peptide hormones were exposed to Zn complex for 15 minutes to allow for complex formation and subsequently cAMP generation was studied.
(§1) HEK 293 cells stably expressing hPTH1R were used for the cAMP accumulation assay following the previously reported procedure. The reaction was carried out at 37 °C and fluorescence measurements were taken using a VICTOR X4 2030 plate reader (PerkinElmer Life and Analytical Sciences). A fixed amount of 0.01 μM peptide hormones and 4 × 10^3 cells per well were used to monitor the cAMP response. The Zn complex or 9-anthracenemethanol was diluted form 0.1 μM to 100 μM and incubated for 15 minutes with the peptide hormone before addition of HEK 293 cells. All experiments were performed in triplicate and repeated independently three times. The maximum cAMP response were calculated as a percentage of the maximal response of PTH(1–34) or PTH(1–84). The effect of Zn complex or 9-anthracenemethanol on receptor was evaluated by incubating these with the cells for 15 minutes followed by washing with buffer. These treated cells were added to the reaction mixture containing untreated PTH(1–84) as described above.

PTH(1–84) [2] = molecular target: T1, PTH(1–84) (Homo sapiens, UniProt P01270); test: NMR 1H–15N HSQC titration with 15N–PTH(1–84); assay type: binding; conditions: pH 5.3, 25 °C
T1 construct: SUMO (N, cleaved yes); His-tag (C); made in house; host or cells: E. coli BL21 codon+
T1 sequence (P01270 32-115): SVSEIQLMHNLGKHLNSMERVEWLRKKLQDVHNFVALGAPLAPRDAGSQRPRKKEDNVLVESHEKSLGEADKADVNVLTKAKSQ
Description: Preferential binding at residue-level resolution was further investigated by choosing full length ^15N PTH(1–84) to see whether or not the C–terminal region is involved in the Zn complex interaction. […] These NMR spectra indicate that the N–terminal domain of PTH (1–84) binds to the Zn complex whereas the C–terminus part remains solvent exposed and flexible enough to result in observable resonances. […] Histidine 63 is the only exception in the C–terminal part of PTH(1–84) sensing complex formation.
The spectra were recorded at the concentration of 50 μM of peptide hormones. Subsequently, titration was carried out with the addition of 0.5 μl of 10 mM Zn complex until there was no further change in NMR intensity observed. The spectrum corresponding to the 1:4 complex formations was used for the analysis. For the 9-anthracenemethanol titration experiment 20 μM of PTH was used. A titration was carried out and the 1:4 complex of PTH:9-anthracenemethanol was analyzed in detail. The spectra were corrected for the dilution factor. The previously determined NMR assignments of PTH resonances were used[24][63][64]. The spectra were recorded in the 10 mM BisTris, 300 mM Na2SO4, 0.02% NaN3, pH 5.3, with a Bruker 800 MHz Avance III spectrometer equipped with a CP–TCI cryoprobe at 25 °C. Spectra were processed using the programs NMRPipe and NMR Draw.

PTH(1–84) [3] = molecular target: T1, PTH(1–84); test: Fluorescence quenching titration with PTH(1–84); assay type: binding
Method: (§2) The natural form of parathyroid hormone comprises 84 residues, however, PTH(1–34) is sufficient for receptor activation. PTH contains one tryptophan residue at position 23. Thus it can be used as a highly sensitive fluorescent probe for the analysis of ligand binding by fluorescence spectroscopy. PTH is composed of structured sections mainly from positions 1–37, whereas the C–terminal part is largely unstructured. […] In order to establish the binding a titration experiment was carried out where the PTH(1–34) concentration was kept constant and the concentration of the Zn complex was varied.
(§3) The fluorescence quenching behavior was analyzed according to the equation given in the experimental section. […] In order to evaluate the interaction at the C–terminal part of the PTH and its role in binding, full length PTH(1–84) was taken and its binding was established.
(§4) Fluorescence titrations were carried out on a JASCO FP6500. The samples were excited at 280 nm wavelength and the emission spectra were recorded in the range between 290 nm to 450 nm. Experiments were carried out in 10 mM BisTris, 300 mM Na2SO4, 0.02% NaN3, pH 7.2 using a 1 cm path length quartz cell. The concentration of PTH(1–34), PTH(1–84) and nECD-PTH1R used in the titration experiments were 7.4 μM, 8.1 μM and 5 μM, respectively. In a typical titration experiment, 4 μM of Zn complex or 9-anthracenemethanol was added and spectra were recorded after each addition. Zn complex or 9-anthracenemethanol in buffer was used as blank titration and these spectral traces were subtracted from the main titration. The Zn complex or 9-anthracenemethanol was dissolved in dimethyl sulfoxide and further diluted for experiments. The final concentration of DMSO was <1% in any experiment.
(§5) Fluorescence data were analyzed according to the following equation:
(§6) with P = (P0 / (V0 + L))V0 and L1 = (L0 / (V0 + L))L and Q – fluorescence intensity, P – protein concentration, L – ligand concentration, V – volume, n – binding sites and 0 – indicates start point.

HEK 293 cells = test: Cell viability, MTT assay; assay type: cell-based, Human; conditions: up to 100 μM, MTT after 3h
Method: (§7) The cAMP generation was also analyzed to see the effect of the Zn complex on the receptor itself. Here, the Zn complex was pre-incubated with the cells followed by addition of PTH(1–84). […] In another control experiment cAMP generation was also studied by incubating the 9-anthracenemethanol with the peptide (Figure S9) or directly with the cells (grey bars in Figure S7). […] Additionally, inhibition of cAMP response or cell toxicity was also not observed up to 100 μM of Zn–perchlorate (Figure S10).
Figure S10: (a) cAMP response and (b) cell viability against Zn–perchlorate. Cell viability was tested after 3h using MTT assay.

PTH(1–34) [4] = molecular target: T2, PTH(1–34) (Homo sapiens, UniProt P01270); test: Fluorescence quenching titration with PTH(1–34); assay type: binding
T2 construct: Human PTH(1–34) and PTH(1–84) were purified as previously reported; SUMO (N, cleaved yes); His-tag (C); made in house; host or cells: E. coli BL21 codon+
T2 sequence (P01270 32-65 limits assumed): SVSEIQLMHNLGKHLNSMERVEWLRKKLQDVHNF
Method: as §2, §3, §4, §5, §6

PTH1R in HEK 293 cells = test: cAMP assay, compound pre-incubated with cells followed by PTH(1–84); assay type: cell-based, Human; conditions: compound pre-incubated with the cells, then PTH(1–84)
Method: as §7
as §1, with “All experiments were performed in triplicate and repeated independently three times.” left out, “These treated cells were added to the reaction mixture containing untreated PTH(1–84) as described above.” left out

PTH(1–34) [5] = molecular target: T2, PTH(1–34); test: ITC with PTH(1–34); assay type: binding; conditions: 25 °C
Method: (§8) ITC is a well suited method to evaluate protein-ligand interaction. The interaction of the Zn complex with PTH(1–34) and PTH(1–84) was evaluated by ITC at 25 °C. Zn complex binding was exothermic in nature for both the peptides (Fig. 3b and Figure S4). Data fitting gave n values of 2.28 ± 0.13 and 1.93 ± 0.04 for PTH(1–34) and PTH(1–84), respectively. […] The enthalpic gain counterbalances the unfavorable loss in entropy of the system upon complex binding.
(§9) The calorimetric titrations were performed at 25 °C with a MicroCal VPITC isothermal titration calorimeter. Small aliquots (7 μl) of the Zn complex were added to a solution of the respective peptide in the calorimeter cell. Successive additions were separated by a 300 second interval to allow the resulting peak from peptide Zn complex interaction to return to the baseline. All of the studies were carried out in 10 mM BisTris, 300 mM Na2SO4, pH 7.2.

[6] = system: PTH(1–34) induced cAMP in HEK 293 cells expressing hPTH1R; test: cAMP accumulation assay, compound pre-incubated with PTH(1–34); assay type: cell-based, Human; conditions: PTH(1–34) 0.01 μM, 15 min pre-incubation with peptide
Description: NMR spectroscopy identified that the Zn complex interacts with the N–terminal part of the peptide hormone. The binding region from residues 1–37 of PTH(84) is important for recognition, interaction with the extracellular loops and trans–membrane helices of the receptor and bringing about activation of the later. There are two principal signal transduction pathways involving the G protein–coupled receptors: the cAMP signal pathway and the phosphatidylinositol signal pathway. Parathyroid hormone is involved in the cAMP pathway for its biological regulation. […] Therefore PTH(1–34) and PTH(1–84) induced cAMP accumulation was measured in stable HEK 293 cell lines expressing recombinant PTH1R[33]. […]
HEK 293 cells stably expressing hPTH1R were used for the cAMP accumulation assay following the previously reported procedure. The reaction was carried out at 37 °C and fluorescence measurements were taken using a VICTOR X4 2030 plate reader (PerkinElmer Life and Analytical Sciences). […] The maximum cAMP response were calculated as a percentage of the maximal response of PTH(1–34) or PTH(1–84). The effect of Zn complex or 9-anthracenemethanol on receptor was evaluated by incubating these with the cells for 15 minutes followed by washing with buffer. […]

[7] = design: method as in PMID 21709916; conditions: cited from earlier work
PTH(1–84) [8] = molecular target: T1, PTH(1–84); test: ITC with PTH(1–84); assay type: binding; conditions: 25 °C
Method: as §8, §9

cancer cells = system: cancer cells; design: method as in PMID 21709916; conditions: broad range of cancer cells; cited from earlier work
Water solubility = assay type: physicochemical; conditions: in the absence of the metal
Description: As GPCRs are involved in many diseases, they are targets for approximately 40% of all human modern medicinal drugs. However, these drugs target only a small fraction (about 10%) of known GPCRs[37]. Within the context of receptors including GPCRs, typically available drug molecules for pharmacological applications directly target the receptors. However, literature is limited with regards to molecules which bind to the agonist to modify its receptor activating function. A potential class of molecules for this purpose could be organic/coordination/mixed–ligand complexes. In mixed–ligand complexes one metal ion can replace another metal ion bearing the original skeletal system. A metal replacement can lead to suppressed or negligible biological responses. […] In principle, Zn(II) is less toxic than Cu(II) and it is redox silent therefore, this metal was chosen in exchange of Cu(II).

[O-][Cl+3]([O-])([O-])[O-].[O-][Cl+3]([O-])([O-])[O-].[Zn+2] [Zn–perchlorate, reference compound]
inhibition of cAMP response ([1]; up to 100 μM): not observed
change in NMR cross peaks / intensity of PTH(1–84) (PTH(1–84) [2]): did not show a significant change in NMR cross peaks
change in fluorescence intensity (PTH(1–84) [3]; up to 200 μM, PTH(1–84)): did not show any significant change
cell toxicity (HEK 293 cells): not observed

Zn(II) complex of anthracenyl terpyridine [Zn complex]
reduced fluorescence intensity at the end of the titration (PTH(1–34) [4]; 76 μM of Zn complex, PTH(1–34)): ~ 86%
CF50 (concentration required for 50% quenching of fluorescence intensity) (PTH(1–34) [4]; PTH(1–34)): 21.46 ± 0.5 µM
stoichiometry (numbers of binding sites with equal affinities) (PTH(1–34) [4]; fluorescence quenching, PTH(1–34)): 1.9
Kd (PTH(1–34) [4]; fluorescence quenching, PTH(1–34) 7.4 μM, pH 7.2): 27 ± 1.8 µM
concentration for complete suppression of the cAMP response ([1]; PTH(1–84) 0.01 μM, 15 min pre-incubation with peptide): ~ 20 μM
IC50 ([1]; PTH(1–84) 0.01 μM, 15 min pre-incubation with peptide, read-out: concentration at which 50% reduced activity (cAMP response) was observed): 2 µM
change in NMR cross peaks / intensity of PTH(1–84) (PTH(1–84) [2]): binds to N–terminal residues
reduced fluorescence intensity at the end of the titration (PTH(1–84) [3]; 76 μM of Zn complex, PTH(1–84)): ~ 75%
CF50 (concentration required for 50% quenching of fluorescence intensity) (PTH(1–84) [3]; PTH(1–84)): 31.8 ± 0.8 µM
stoichiometry (PTH(1–84) [3]; fluorescence quenching, PTH(1–84)): 2.0
Kd (PTH(1–84) [3]; fluorescence quenching, PTH(1–84) 8.1 μM, pH 7.2): 34 ± 1.7 µM
suppression of cAMP generation (PTH1R in HEK 293 cells): did not show a significant suppression
Kd (PTH(1–34) [5]): 55.06 ± 0.06 µM
n (ITC) (PTH(1–34) [5]): 2.28 ± 0.13
∆H (ITC) (PTH(1–34) [5]): -5.9 ± 0.1 kcal/mol
∆S (ITC) (PTH(1–34) [5]): −5.37 cal mol^−1K^−1
concentration for complete suppression of the cAMP response [6]: ~ 20 μM
IC50 ([6]; read-out: concentration at which 50% reduced activity (cAMP response) was observed): 2 µM
nuclease activity [7]: did not show nuclease or antiprolifirative activities
Kd (PTH(1–84) [8]): 54.1 ± 0.08 µM
n (ITC) (PTH(1–84) [8]): 1.93 ± 0.04
∆H (ITC) (PTH(1–84) [8]): -11.25 ± 0.3 kcal/mol
∆S (ITC) (PTH(1–84) [8]): −7.15 cal mol^−1K^−1
antiproliferative activity (cancer cells): did not show nuclease or antiprolifirative activities

Cu(II) complex of anthracenyl terpyridine [reference compound]
nuclease activity [7]: showed nuclease and antiprolifirative activity
antiproliferative activity (cancer cells): showed nuclease and antiprolifirative activity

c1ccc(-c2cc(-c3c4ccccc4cc4ccccc34)cc(-c3ccccn3)n2)nc1 [anthracenyl terpyridine]
water solubility (Water solubility): water insoluble

OCc1c2ccccc2cc2ccccc12 [9-anthracenemethanol, reference compound]
suppression of intracellular cAMP generation ([1]; compound incubated with the peptide PTH(1–84)): significant suppression of intracellular cAMP generation was not observed
change in NMR cross peaks / intensity of PTH(1–84) (PTH(1–84) [2]): no residue specific NMR intensity loss
Kd (PTH(1–84) [3]; fluorescence titration against PTH(1–84)): 3520 ± 380 µM
suppression of cAMP generation (PTH1R in HEK 293 cells): significant suppression of intracellular cAMP generation was not observed
